Source: paper PMC6272662, “Trypanocidal Activity of Long Chain Diamines and Aminoalcohols” (Molecules, 2015)

Columns and labels:
[1] = test system: Trypanosoma cruzi amastigotes CL-B5 clone; assay: Amastigote susceptibility assay, CL-B5 clone in NCTC-929 fibroblasts (CPRG); assay type: cell-based; conditions: for Amastigotes CL-B5 Clone SI: NCTC-929 cytotoxicity / amastigote IC50; for IC50: intracellular amastigotes in NCTC-929 fibroblasts, 7 days, mean ± SEM
Method: For the anti-amastigote assays, axenic cultures of epimastigotes reaching their stationary phase of growth (14 day-old cultures) were used to infect non-confluent monolayers of NCTC-929 fibroblasts to obtain tissue culture derived trypomastigotes (TCT). After 24 h at 33 °C in a humidified 5% CO2 atmosphere, the infected cultures were washed with phosphate buffer saline (PBS) to removed non-penetrated epimastigotes. TCT were harvested from the supernatant of the cultures after one week of incubation in these conditions of temperature and humidity.
For this assay, 120 μL of BME containing 10,000 NCTC-929 fibroblasts/well were seeded in 48-well plates (Costar) and after their attachment, infected with TCT obtained as above in a 1:6 cell-parasite ratio. The plates were incubated at 33 °C and 5% CO2 overnight and after the infection, experimental wells were washed with PBS to eliminate non-penetrated TCT. […] Then, 50 μL of a CPRG solution in 3% Triton X-100 (pH 7.4) were added to each well in a final concentration of 400 μM and the plates incubated 3 h at 37 °C. Finally, anti-amastigote activity was estimated by reading absorbance at 595 nm in a plate reader (Infinite 200, Tecan) and calculated as in Fonseca-Berzal et al.. IC50 and NI indexes were calculated as above.

[2] = test system: Trypanosoma cruzi epimastigotes strain JEM (MHOM/CO/05/JEM); assay: Epimastigote susceptibility assay, JEM strain (Trypan Blue and XTT); assay type: cell-based; conditions: for JEM Strain SI (Selectivity Index: LC50-macrophages/IC50-epimastigotes): JEM strain epimastigotes vs J774.2 macrophages; for JEM Strain PNFX (potency relative to NFX = IC50-NFX/IC50-compound; also called NI) / IC50: epimastigotes, JEM strain; for IC50: 72 h at 28 °C, 0.1-70.0 µM, mean ± SEM
Method: (§1) For in vitro studies, the strains MHOM/CO/04/MG (MG), MHOM/CO/05/JEM (JEM) and CL Brener strain clone B5 (CL-B5) were used. The MG and JEM strains correspond to Group I and Haplotype Ia isolates from two Colombian patients in the acute phase, and CL-B5 is a strain stably transfected with Escherichia coli β-galactosidase gene (lacZ). Epimastigotes were grown in plastic culture flasks at 28 °C, in axenic liver-infusion tryptose (LIT) growth medium, supplemented with 10% heat inactivated (30 min at 56 °C) foetal calf serum (FCS; Sigma), […] hemin (Sigma), and 10 µg/mL gentamycin (Sigma) and harvested in the exponential phase for conducting the experiments. Cultures were continuously maintained in logarithmic growth by weekly passages.
(§2) Three different strains of T. cruzi were used for the primary screening on epimastigote forms. For strains MG and JEM, the screening assay was performed with approximately 1 × 10^5 epimastigotes in logaritmic growth phase in 200 μL of supplemented LIT medium per well in 96-well flat bottoned plates (Costar, Corning, Cornig, NY, USA). […] The plates were incubated for 72 h at 28 °C and all experimental conditions were evaluated in triplicate in three independent experiments. The epimastigote growth inhibition was microscopically determined by the Trypan Blue dye exclusion assay and XTT (2,3-bis-(2-methoxy-4-nitro-5-sulfophenyl)-5-[(phenylamino)carbonyl]-2H-tetrazolium hydroxide). Regarding the first method, an aliquot from every culture was suspended in 0.4% trypan blue solution for 5 min and cell viability was determined under microscope by counting live parasites in each condition in a Neubauer chamber. Anti-epimastigote activity percentage was calculated as (Parasite counts in control wells-Parasite counts in experimental wells) × 100/Parasite counts in control wells. Trypanocidal activity over both strains was also measured adding 50 μL of XTT solution per well to obtain a final concentration of 0.3 mg/mL. The plate was re-incubated 24 h in the dark at 37 °C and orange formazan solution formed, was spectrophotometrically quantified at 450 nm with a 630 nm reference filter, using an Ear400FT ELISA reader.
(§3) Furthermore the Selectivity Index (SI = mammalian cell LC50/epimastigote IC50) for each compound was calculated to compare the antiprotozoal activity with its respective mammalian cell cytotoxicity.

[3] = test system: NCTC-929 fibroblasts; assay: in vitro; assay type: cell-based; conditions: NCTC-929 fibroblasts, 48 h, resazurin, mean ± SEM; read-out: Cytotoxicity NCTC-929 LC50
Method: (§4) NCTC-929 cells were placed in triplicate in 96-well microtitre plates at 15 × 10^3 cells per well in 100 µL of MEM supplemented with FBS and antibiotics. The cells were grown overnight at 37 °C in 5% CO2. Thereafter, the medium was removed and the compounds were added in 200 µL of medium and plates were incubated 48 h at 37 °C in 5% CO2. After incubation, 20 µL of 2 mM resazurin (Sigma) solution was added to each well. The plates were incubated for 3 h and metabolic activity was measured by fluorimetric readings taken in a plate fluorometer (Infinite 200, TECAN, Mannedorf, Switzerland) at λexcitation 535 nm and λemission 590 nm, according to the Alamar blue® Assay.

[4] = test system: Trypanosoma cruzi epimastigotes CL Brener strain clone B5 (CL-B5); assay: Epimastigote susceptibility assay, CL-B5 clone (β-galactosidase activity, CPRG); assay type: cell-based; conditions: for Epimastigotes CL-B5 Clone SI: NCTC-929 cytotoxicity / epimastigote IC50; for Epimastigotes CL-B5 Clone PNFX (nifurtimox IC50/compound IC50) / IC50: epimastigotes, CL-B5 clone; for IC50: 72 h at 28 °C, β-galactosidase readout, mean ± SEM
Method: as §1
Trypanocidal activity against CL-B5 strain was also assessed by measuring β-galactosidase activity. Briefly, log-phase epimastigotes were seeded in 96-well microplates at a density of 2.5 × 10^5 parasites/mL in a final volume of 200 μL/well and incubated within the compounds for 72 h at 28 °C. Afterwards, 50 μL of the β-galactosidase substrate chlorophenol red β-D-galactopyranoside (CPRG, Roche) in 0.9% Triton X-100 (Panreac) solution were added to each well (200 μM, pH 7.4) and the plates incubated at 37 °C for 3 h. Anti-epimastigote activity was estimated by reading absorbance at 595 nm. Each concentration was assayed by triplicate, in three independent experiments. […] In all spectrophotometric assays, anti-epimastigote activity percentages were calculated as (OD control wells − OD experimental wells) ×100/OD control wells.
as §3

[5] = test system: Trypanosoma cruzi epimastigotes strain MG (MHOM/CO/04/MG); assay: Epimastigote susceptibility assay, MG strain (Trypan Blue and XTT); assay type: cell-based; conditions: for MG Strain SI (Selectivity Index: LC50-macrophages/IC50-epimastigotes): MG strain epimastigotes vs J774.2 macrophages; for MG Strain PNFX (potency relative to NFX = IC50-NFX/IC50-compound; also called NI) / IC50: epimastigotes, MG strain; for IC50: 72 h at 28 °C, 0.1-70.0 µM, mean ± SEM
Method: as §1, §2, §3

[6] = test system: J774.2 macrophages; assay: in vitro; conditions: for CC50: read-out: Macrophages LC50, J774.2 macrophages, 72 h, mean ± SEM
Method: (§5) The mouse cell lines J774.2 macrophages and NCTC clone 929 fibroblasts were used and cultured in plastic culture flasks. J774.2 and NCTC-929 cells were grown using DMEM and BME without phenol-red, respectively. Both media were supplemented with 10% heat inactivated fetal calf serum, 2 mM glutamine, 100 U/mL penicillin and 100 μg/mL streptomycin. Cell cultures were maintained at 37 °C in a humidified atmosphere containing 5% CO2 and subpassaged once a week. Cells in the pre-confluence phase were harvested with an EDTA-trypsin solution for the experiments.
(§6) Unspecific cytotoxicity was evaluated over phagocytic macrophages J774.2 cell line. To study cytotoxicity on J774.2 cells, 200 μL of a suspension of 2 × 10^5 macrophages/mL were added to 96 well flat-bottom microplates (Sigma). Cells were allowed to attach for 24 h at 37 °C and then exposed to the compounds for 72 h at the same concentrations as used for drug screening. […] Each concentration was assayed by triplicate, in independent experiments. Cytotoxicity was assessed by the Trypan Blue and XTT techniques and LC50 was calculated as described above.

[7] = in vitro; assay type: cell-based; conditions: mouse
Method: as §4

[8] = in vitro; conditions: mouse
Method: as §5, §6

[9] = test system: Chagas disease; set-up: method as in PMID 22614520, PMID 22760123, PMID 22686518, PMID 19967227; conditions: chronic cases of Chagas disease; ref [6],[7],[8],[9]; cited from earlier work
[10] = Trypanosoma cruzi, NCTC929, 168 h

Molecule: 2-(tert-Butoxycarbonyl)-dodecan-1,2-diamine [Compound 14]
- Amastigotes CL-B5 Clone SI [1]: 9.9
- Amastigotes CL-B5 Clone PNFX (nifurtimox IC50/compound IC50) [1]: 0.2
- IC50 [1]: 3 ± 0.21 µM
- JEM Strain SI (Selectivity Index: LC50-macrophages/IC50-epimastigotes) [2]: 3.3
- JEM Strain PNFX (potency relative to NFX = IC50-NFX/IC50-compound; also called NI) [2]: 1.0
- IC50 [2]: 14.5 ± 0.05 µM
- CC50 [3]: 29.6 ± 0.01 µM
- Epimastigotes CL-B5 Clone SI [4]: 11.8
- Epimastigotes CL-B5 Clone PNFX (nifurtimox IC50/compound IC50) [4]: 4.2
- IC50 [4]: 2.5 ± 0.03 µM
- MG Strain SI (Selectivity Index: LC50-macrophages/IC50-epimastigotes) [5]: 4.4
- MG Strain PNFX (potency relative to NFX = IC50-NFX/IC50-compound; also called NI) [5]: 2.0
- IC50 [5]: 10.8 µM
- CC50 [6]: 47.1 ± 0.35 µM

Molecule: 2-tert-Butoxycarbonyl-hexadecan-1,2-diamine [Compound 15]
- Amastigotes CL-B5 Clone SI [1]: 9.8
- Amastigotes CL-B5 Clone PNFX (nifurtimox IC50/compound IC50) [1]: 0.2
- IC50 [1]: 2.6 ± 0.23 µM
- JEM Strain SI (Selectivity Index: LC50-macrophages/IC50-epimastigotes) [2]: 2.4
- JEM Strain PNFX (potency relative to NFX = IC50-NFX/IC50-compound; also called NI) [2]: 0.7
- IC50 [2]: 20.4 ± 0.3 µM
- CC50 [3]: 25.6 ± 0.06 µM
- Epimastigotes CL-B5 Clone SI [4]: 10.6
- Epimastigotes CL-B5 Clone PNFX (nifurtimox IC50/compound IC50) [4]: 4.3
- IC50 [4]: 2.4 ± 0.01 µM
- MG Strain SI (Selectivity Index: LC50-macrophages/IC50-epimastigotes) [5]: 4.0
- MG Strain PNFX (potency relative to NFX = IC50-NFX/IC50-compound; also called NI) [5]: 1.8
- IC50 [5]: 12 ± 2.15 µM
- CC50 [6]: 48.1 ± 0.15 µM

Molecule: CCCCCCCCCCCCCCC(N)CO (centres unmarked) [Compound 2, 2-Aminohexadecanol]
- Amastigotes CL-B5 Clone SI [1]: 14.0
- IC50 [1, 10]: 1.8 ± 0.12 µM
- Amastigotes CL-B5 Clone PNFX (nifurtimox IC50/compound IC50) [1]: 0.3
- JEM Strain SI (Selectivity Index: LC50-macrophages/IC50-epimastigotes) [2]: 26
- IC50 ([2]; Trypanosoma cruzi, 72 h): 3 ± 1.5 µM
- JEM Strain PNFX (potency relative to NFX = IC50-NFX/IC50-compound; also called NI) [2]: 4.9
- CC50 at 48 h [7]: 25.2 ± 0.12 µM
- Epimastigotes CL-B5 Clone SI [4]: 7.2
- IC50 ([4]; Trypanosoma cruzi): 3.5 ± 0.01 µM
- Epimastigotes CL-B5 Clone PNFX (nifurtimox IC50/compound IC50) [4]: 3.0
- MG Strain SI (Selectivity Index: LC50-macrophages/IC50-epimastigotes) [5]: 3.3
- IC50 ([5]; Trypanosoma cruzi, 72 h): 23.7 ± 3.15 µM
- MG Strain PNFX (potency relative to NFX = IC50-NFX/IC50-compound; also called NI) [5]: 0.9
- CC50 at 72 h [8]: 77.8 ± 0.35 µM

Molecule: CCCCCCCCCCCCCCC(CO)NCC (centres unmarked) [Compound 5, 2-(Ethylamino)hexadecanol]
- Amastigotes CL-B5 Clone SI [1]: 54
- IC50 [1, 10]: 0.6 ± 0.25 µM
- Amastigotes CL-B5 Clone PNFX (nifurtimox IC50/compound IC50) [1]: 1.0
- JEM Strain SI (Selectivity Index: LC50-macrophages/IC50-epimastigotes) [2]: 2.3
- IC50 ([2]; Trypanosoma cruzi, 72 h): 19.3 ± 1.35 µM
- JEM Strain PNFX (potency relative to NFX = IC50-NFX/IC50-compound; also called NI) [2]: 0.8
- CC50 at 48 h [7]: 32.4 ± 0.02 µM
- Epimastigotes CL-B5 Clone SI [4]: 9.8
- IC50 ([4]; Trypanosoma cruzi): 3.3 ± 0.1 µM
- Epimastigotes CL-B5 Clone PNFX (nifurtimox IC50/compound IC50) [4]: 3.1
- MG Strain SI (Selectivity Index: LC50-macrophages/IC50-epimastigotes) [5]: 2.0
- IC50 ([5]; Trypanosoma cruzi, 72 h): 21.6 ± 2.95 µM
- MG Strain PNFX (potency relative to NFX = IC50-NFX/IC50-compound; also called NI) [5]: 1.0
- CC50 at 72 h [8]: 43.4 ± 0.5 µM

Molecule: CCCCCCCCCCCCCCC(CO)NCCCC (centres unmarked) [Compound 6, 2-(Butylamino)hexadecanol]
- Amastigotes CL-B5 Clone SI [1]: 47.8
- IC50 [1, 10]: 2 ± 0.27 µM
- Amastigotes CL-B5 Clone PNFX (nifurtimox IC50/compound IC50) [1]: 0.3
- IC50 ([2]; Trypanosoma cruzi, 72 h): 2.8 ± 0.75 µM
- JEM Strain PNFX (potency relative to NFX = IC50-NFX/IC50-compound; also called NI) [2]: 5.3
- CC50 at 48 h [7]: 95.6 ± 1.19 µM
- Epimastigotes CL-B5 Clone SI [4]: 22.7
- IC50 ([4]; Trypanosoma cruzi): 4.2 ± 0.52 µM
- Epimastigotes CL-B5 Clone PNFX (nifurtimox IC50/compound IC50) [4]: 2.5
- IC50 ([5]; Trypanosoma cruzi, 72 h): 3.2 ± 0.2 µM
- MG Strain PNFX (potency relative to NFX = IC50-NFX/IC50-compound; also called NI) [5]: 6.6
- times less toxic than NFX ([6]; macrophages LC50 relative to NFX): 1.3
- CC50 at 72 h [8]: 63.9 ± 3.5 µM

Molecule: CC1CS(=O)(=O)CCN1/N=C/c1ccc([N+](=O)[O-])o1 (centres unmarked) [NFX, nifurtimox, reference compound]
- IC50 [1, 10]: 0.6 ± 0.01 µM
- IC50 ([2]; Trypanosoma cruzi, 72 h): 14.8 ± 1.24 µM
- IC50 ([4]; Trypanosoma cruzi): 10.4 ± 1.3 µM
- IC50 ([5]; Trypanosoma cruzi, 72 h): 21.2 ± 1.16 µM
- average cure rate [9]: less than 20%
